Experimental data reported in article PMC11434840, “Discovery of Benzopyrone-Based Candidates as Potential Antimicrobial and Photochemotherapeutic Agents through Inhibition of DNA Gyrase Enzyme B: Design, Synthesis, In Vitro and In Silico Evaluation” (Pharmaceuticals, 2024).
Like-named read-outs stand apart in the source and are kept apart here. Blank lines part the entries; values can stand above or below the molecule they belong to.

Key:
[1] = test system: Bacillus subtilis ATCC 14579; assay: Antimicrobial agar cup-plate assay, B. subtilis; type: cell-based; design: key: -: no activity; conditions: 0.1 mL of compound in DMF, overnight incubation, mean ± SD, at least three experiments
Description: (§1) The antimicrobial activity of all newly synthesized compounds was determined using the agar cup-plate method using the Hi-Media agar medium. Xanthotoxin, tobramycin, and amphotericin B were used as reference drugs. All newly synthesized compounds were tested against two strains of Gram-positive bacteria (Bacillus subtilis ATCC 14579 and Staphylococcus aureus ATCC 25923), Gram-negative bacteria (Escherichia coli ATCC 25922), and yeast (Candida albicans ATCC 10231).
(§2) The nutrient agar medium consists of 0.3% of beef extract, 0.5% of peptone, 0.1% dipotassium hydrogen phosphate, and 1.5% agar. Broth cultures of the organisms were prepared by incubating slant agar seeded with the organisms overnight.
(§3) The prepared broth culture (0.02 mL) was carefully added to sterile Petri dishes. Then, 10 mL of the liquefied nutrient agar medium was poured into each dish, mixed uniformly, and allowed to solidify. Using a sterilized cork borer, cups (9 mm) were scooped out of the agar media contained in the Petri dishes. Each test compound (50 mg) was dissolved in 1 mL DMF (50 mg mL^−1), which was used as a stock solution to carry out the twofold dilution technique. A fixed volume (0.1 mL) of the tested compounds dissolved in dimethylformamide (DMF) was added. Each plate contained a cup filled with DMF to disregard the effect of solvent. Additionally, two other cups were filled with tobramycin and xanthotoxin being used as reference drugs. The plates were incubated overnight to examine the antimicrobial activity. Zones of inhibition obtained by each test compound were measured in millimeters and the results are recorded in Table 2.
(§4) GraphPad Prism-version 5 (GraphPad Software, Inc., La Jolla, CA, USA) was used for statistical analysis.

[2] = test system: Staphylococcus aureus ATCC 25923; assay: Antimicrobial agar cup-plate assay, S. aureus; type: cell-based; design: key: -: no activity; conditions: 0.1 mL of compound in DMF, overnight incubation, mean ± SD, at least three experiments
Description: as §1, §2, §3, §4

[3] = test system: Escherichia coli ATCC 25922; assay: Antimicrobial agar cup-plate assay, E. coli; type: cell-based; conditions: 0.1 mL of compound in DMF, overnight incubation, mean ± SD, at least three experiments
Description: as §1, §2, §3, §4

[4] = test system: Candida albicans ATCC 10231; assay: Antimicrobial agar cup-plate assay, C. albicans; type: cell-based; design: key to Inhibition Zone (mm) C. albicans: -: no activity; conditions: 0.1 mL of compound in DMF, overnight incubation, mean ± SD, at least three experiments
Description: as §1, §2, §3, §4

[5] = test system: Bacillus subtilis ATCC 14579; assay: Photosensitizing assay (MIC before and after UV irradiation, agar cup-plate); type: cell-based; design: key to MIC (mg mL^−1) Control / MIC (mg mL^−1) Test / MIC (mM) Control / MIC (mM) Test: -: no activity; conditions: B. subtilis; for MIC: Bacillus subtilis, ATCC14579, light or radiation study
Description: The photosensitizing activity was determined using the agar cup-plate method (described in Section 2.3) with Hi-Media agar medium. The antibacterial activity against Bacillus subtilis ATCC 14579 was measured before and after exposure to UV lamp (365 nm). The diameters of the inhibition zones were measured in mm and the results were compared with xanthotoxin. The tested organism used was Bacillus subtilis.
For the photosensitizing activity, xanthotoxin was used as a reference drug and DMF as a negative control. The minimum inhibitory concentrations (MIC) were determined using the agar cup-plate method. Each test compound (50 mg) was dissolved in 1 mL DMF (50 mg mL^−1), which was used as a stock solution to carry out the twofold dilution technique. The sample size for all the compounds was adjusted to 0.1 mL. The solution of the test compound (0.1 mL) was added to the cups. The plates were divided into test plates and duplicate plates. Before irradiation, the test plates were incubated in the dark at 37 °C for 3 h to permit the diffusion of the tested compounds through the agar layer. The duplicate plates were incubated overnight and used as a control for the determination of the antibacterial activity. The covers were removed from the test plates, and the dishes were exposed to UV lamp (365 nm) for 20 min. After irradiation, the plates were left overnight in the dark at 37 °C. MIC, the least concentration preventing visible bacterial growth, was determined in both the control and test, indicating the antibacterial and photosensitizing activity of the tested compounds, respectively.
To evaluate the significance of the difference in the results, each experiment was repeated at least three times. […] GraphPad Prism-version 5 (GraphPad Software, Inc., La Jolla, CA, USA) was used to perform statistical analysis of the results.

[6] = target: T1, E. coli DNA gyrase (Escherichia coli, UniProt P0AES6); assay: In vitro DNA gyrase supercoiling inhibitory assay; type: biochemical; conditions: mean ± SD of three separate experiments
T1 construct: purchased John Innes Enterprises Ltd
Description: The supercoiling assay, based on DNA triplex, formation [43] was performed on the black streptavidin-coated 96-well microtiter plates (Thermo Scientific Pierce). Serial dilutions of the tested compounds and standard drugs were prepared, starting from 5.0 U/mL (5.0, 2.5, 1.25, 0.625, 0.312, 0.156, and 0.078 U/mL). The plates were first rehydrated with the supplied wash buffer [20 mM Tris-HCl (pH 7.6), 137 mM NaCl 0.01% (w/v), BSA 0.05% (v/v) Tween 20] and oligonucleotide was immobilized onto the wells. The excess oligonucleotide was then washed off, and the enzyme assay was carried out in the wells.
The final reaction volume of 30 μL in buffer [35 mM Tris × HCl (pH 7.5), 24 mM KCl, 4 mM MgCl2, 2 mM DTT (dithiothreitol), 1.8 mM spermidine, 1 mM ATP, 6.5% (w/v) glycerol, 0.1 mg/mL albumin] contained 1.5 U of gyrase from E. coli, 0.75 μg of relaxed pNO1 plasmid, and 3 μL of inhibitor solution in 10% DMSO and 0.008% Tween 20. Reactions were incubated for 30 min at 37 °C and after the addition of the TF buffer [50 mM NaOAc (pH 5.0), 50 mM NaCl, and 50 mM MgCl2], which terminated the enzymatic reaction for another 30 min at rt to allow the triplex formation. The unbound plasmid was then washed off using TF buffer, and a solution of SybrGOLD stain in T10 buffer [10 mM Tris × HCl (pH 8.0) and 1 mM EDTA] was added. After mixing, the fluorescence (excitation: 495 nm, emission: 537 nm) was measured using BioTek Synergy HT microplate reader. […] GraphPad Prism-version 5 (GraphPad Software, Inc., La Jolla, CA, USA) was used to determine the IC50 values of both the tested compounds and standard drugs across the different concentrations.

[7] = 20 min, after irradiation with UV lamp (365 nm) for 20 min (photosensitizing activity), 100 μL per cup, read-out: MIC (mg mL^−1) Test
[8] = 20 min, after irradiation with UV lamp (365 nm) for 20 min (photosensitizing activity), read-out: MIC (mM) Test
[9] = without irradiation (antibacterial activity), 100 μL per cup, read-out: MIC (mg mL^−1) Control
[10] = without irradiation (antibacterial activity), read-out: MIC (mM) Control
[11] = after irradiation with UV lamp (365 nm) for 20 min (photosensitizing activity)
[12] = after irradiation with UV lamp (365 nm) for 20 min (photosensitizing activity), 100 μL per cup
[13] = without irradiation (antibacterial activity)
[14] = without irradiation (antibacterial activity), 100 μL per cup
[15] = IC50 (μM) DNA gyrase supercoiling
[16] = IC50 (μg mL^−1) DNA gyrase supercoiling

melting point: 165 to 166 °C
Structure (SMILES): CCc1cc2c(C)cc(=O)oc2cc1OCC(=O)c1ccccc1 [Compound 7a, 6-Ethyl-4-methyl-7-phenacyloxy-2H-1-benzopyran-2-one]
Inhibition Zone (mm) B. subtilis [1]: 12 ± 1.414 mm
Inhibition Zone (mm) S. aureus [2]: 28 ± 1.414 mm
Inhibition Zone (mm) E. coli [3]: 20 ± 0.8165 mm
Inhibition Zone (mm) C. albicans [4]: -
MIC [5, 7]: 1500 µg/mL
MIC [5, 8]: 4.65 mM
MIC [5, 9]: 6250 µg/mL
MIC [5, 10]: 19.4 mM

melting point: 136 to 139 °C
Structure (SMILES): CCc1cc2c(C)cc(=O)oc2cc1OCC(=O)c1ccc(C)cc1 [Compound 7b, 6-Ethyl-4-methyl-7-(4-methylphenacyloxy)-2H-1-benzopyran-2-one]
Inhibition Zone (mm) B. subtilis [1]: 13 ± 1.414 mm
Inhibition Zone (mm) S. aureus [2]: 24 ± 1.414 mm
Inhibition Zone (mm) E. coli [3]: 20 ± 1.414 mm
Inhibition Zone (mm) C. albicans [4]: -
MIC [5, 7]: 190 µg/mL
MIC [5, 8]: 0.56 mM
MIC [5, 9]: 1500 µg/mL
MIC [5, 10]: 4.46 mM

melting point: 162 to 164 °C
Structure (SMILES): CCc1cc2c(C)cc(=O)oc2cc1OCC(=O)c1ccc(OC)cc1 [Compound 7c, 6-Ethyl-4-methyl-7-(4-methoxyphenacyloxy)-2H-1-benzopyran-2-one]
Inhibition Zone (mm) B. subtilis [1]: 10 ± 1.414 mm
Inhibition Zone (mm) S. aureus [2]: -
Inhibition Zone (mm) E. coli [3]: 15 ± 1.414 mm
Inhibition Zone (mm) C. albicans [4]: -
MIC [5, 7]: 3120 µg/mL
MIC [5, 8]: 8.87 mM
MIC [5, 9]: 12500 µg/mL
MIC [5, 10]: 35.5 mM

melting point: 153 to 155 °C
Structure (SMILES): CCc1cc2c(-c3ccccc3)cc(=O)oc2cc1OCC(=O)c1ccccc1 [Compound 7d, 6-Ethyl-7-phenacyloxy-4-phenyl-2H-1-benzopyran-2-one]
Inhibition Zone (mm) B. subtilis [1]: 9 ± 1.414 mm
Inhibition Zone (mm) S. aureus [2]: -
Inhibition Zone (mm) E. coli [3]: 16 ± 1.414 mm
Inhibition Zone (mm) C. albicans [4]: -
MIC [5, 7]: 6250 µg/mL
MIC [5, 8]: 16.3 mM
MIC [5, 9]: 6250 µg/mL
MIC [5, 10]: 16.3 mM

melting point: 225 to 226 °C
Structure (SMILES): CCc1cc2c(-c3ccccc3)cc(=O)oc2cc1OCC(=O)c1ccc(C)cc1 [Compound 7e, 6-Ethyl-7-(4-methylphenacyloxy)-4-phenyl-2H-1-benzopyran-2-one]
Inhibition Zone (mm) B. subtilis [1]: -
Inhibition Zone (mm) S. aureus [2]: -
Inhibition Zone (mm) E. coli [3]: 20 ± 0.8165 mm
Inhibition Zone (mm) C. albicans [4]: -
MIC (mM) Test [5, 11]: -
MIC (mg mL^−1) Test [5, 12]: -
MIC (mM) Control [5, 13]: -
MIC (mg mL^−1) Control [5, 14]: - ^d

melting point: 183 to 185 °C
Structure (SMILES): CCc1cc2c(-c3ccccc3)cc(=O)oc2cc1OCC(=O)c1ccc(OC)cc1 [Compound 7f, 6-Ethyl-7-(4-methoxyphenacyloxy)-4-phenyl-2H-1-benzopyran-2-one]
Inhibition Zone (mm) B. subtilis [1]: -
Inhibition Zone (mm) S. aureus [2]: -
Inhibition Zone (mm) E. coli [3]: 23 ± 0.8165 mm
Inhibition Zone (mm) C. albicans [4]: 16 ± 0.8165 mm
MIC (mM) Test [5, 11]: -
MIC (mg mL^−1) Test [5, 12]: -
MIC (mM) Control [5, 13]: -
MIC (mg mL^−1) Control [5, 14]: -

Structure (SMILES): CCc1cc2c(C)cc(=O)oc2c2c(-c3ccccc3)coc12 [Compound 8a, 9-Ethyl-7-methyl-3-phenyl-5H-furo[2,3-h]benzopyran-5-one]
Inhibition Zone (mm) B. subtilis [1]: 20 ± 1.414 mm
Inhibition Zone (mm) S. aureus [2]: 25 ± 1.414 mm
Inhibition Zone (mm) E. coli [3]: 30 ± 1.414 mm
Inhibition Zone (mm) C. albicans [4]: -
MIC [5, 7]: 97 µg/mL
MIC [5, 8]: 0.32 mM
MIC [5, 9]: 310 µg/mL
MIC [5, 10]: 1.02 mM
IC50 [6, 15]: 7.89 ± 0.117 µM
IC50 [6, 16]: 7.89 µM
melting point: 103 to 105 °C

Structure (SMILES): CCc1cc2c(C)cc(=O)oc2c2c(-c3ccc(C)cc3)coc12 [Compound 8b, 9-Ethyl-7-methyl-3-(4-methylphenyl)-5H-furo[2,3-h]benzopyran-5-one]
Inhibition Zone (mm) B. subtilis [1]: 10 ± 1.414 mm
Inhibition Zone (mm) S. aureus [2]: 30 ± 1.414 mm
Inhibition Zone (mm) E. coli [3]: 30 ± 1.414 mm
Inhibition Zone (mm) C. albicans [4]: -
MIC [5, 7]: 97 µg/mL
MIC [5, 8]: 0.3 mM
MIC [5, 9]: 780 µg/mL
MIC [5, 10]: 2.45 mM
IC50 [6, 15]: 38.6 ± 0.513 µM
IC50 [6, 16]: 38.6 µM
melting point: 149 to 151 °C

melting point: 110 to 111 °C
Structure (SMILES): CCc1cc2c(C)cc(=O)oc2c2c(-c3ccc(OC)cc3)coc12 [Compound 8c, 9-Ethyl-3-(4-methoxyphenyl)-7-methyl-5H-furo[2,3-h]benzopyran-5-one]
Inhibition Zone (mm) B. subtilis [1]: 12 ± 1.414 mm
Inhibition Zone (mm) S. aureus [2]: 20 ± 0.8165 mm
Inhibition Zone (mm) E. coli [3]: 24 ± 1.414 mm
Inhibition Zone (mm) C. albicans [4]: -
MIC [5, 7]: 97 µg/mL
MIC [5, 8]: 0.29 mM
MIC [5, 9]: 780 µg/mL
MIC [5, 10]: 2.33 mM

Structure (SMILES): CCc1cc2c(-c3ccccc3)cc(=O)oc2c2c(-c3ccccc3)coc12 [Compound 8d, 3,7-Diphenyl-9-ethyl-5H-furo[2,3-h]benzopyran-5-one]
Inhibition Zone (mm) B. subtilis [1]: 12 ± 0.8165 mm
Inhibition Zone (mm) S. aureus [2]: 23 ± 1.414 mm
Inhibition Zone (mm) E. coli [3]: 30 ± 0.8165 mm
Inhibition Zone (mm) C. albicans [4]: -
MIC [5, 7]: 97 µg/mL
MIC [5, 8]: 0.26 mM
MIC [5, 9]: 780 µg/mL
MIC [5, 10]: 2.13 mM
IC50 [6, 15]: 0.76 ± 0.0223 µM
IC50 [6, 16]: 0.764 µM
melting point: 178 to 180 °C

melting point: 80 to 81 °C
Structure (SMILES): CCc1cc2c(-c3ccccc3)cc(=O)oc2c2c(-c3ccc(C)cc3)coc12 [Compound 8e, 9-Ethyl-3-(4-methylphenyl)-7-phenyl-5H-furo[2,3-h]benzopyran-5-one]
Inhibition Zone (mm) B. subtilis [1]: 20 ± 1.414 mm
Inhibition Zone (mm) S. aureus [2]: 22 ± 1.414 mm
Inhibition Zone (mm) E. coli [3]: 25 ± 0.8165 mm
Inhibition Zone (mm) C. albicans [4]: -
MIC [5, 7]: 97 µg/mL
MIC [5, 8]: 0.25 mM
MIC [5, 9]: 390 µg/mL
MIC [5, 10]: 1.03 mM

melting point: 150 to 153 °C
Structure (SMILES): CCc1cc2c(-c3ccccc3)cc(=O)oc2c2c(-c3ccc(OC)cc3)coc12 [Compound 8f, 9-Ethyl-3-(4-methoxyphenyl)-7-phenyl-5H-furo[2,3-h]benzopyran-5-one]
Inhibition Zone (mm) B. subtilis [1]: 14 ± 1.414 mm
Inhibition Zone (mm) S. aureus [2]: 20 ± 1.414 mm
Inhibition Zone (mm) E. coli [3]: 18 ± 0.8165 mm
Inhibition Zone (mm) C. albicans [4]: -
MIC [5, 7]: 3120 µg/mL
MIC [5, 8]: 7.88 mM
MIC [5, 9]: 6250 µg/mL
MIC [5, 10]: 15.8 mM
